Source: ChEMBL document CHEMBL4411296, “Design and development of Isatin-triazole hydrazones as potential inhibitors of microtubule affinity-regulating kinase 4 for the therapeutic management of cell proliferation and metastasis” (Eur J Med Chem, 2019)

What was measured:
Format in all cases: functional
SK-MEL-28 = assay: Growth inhibition of human SK-MEL-28 cells assessed as cell growth at 10 uM after 48 hrs by sulforhodamine B assay relative to control; settings: SK-MEL-28, 48 h, read-out: Activity
OVCAR-3 = assay: Growth inhibition of human OVCAR3 cells assessed as cell growth at 10 uM after 48 hrs by sulforhodamine B assay relative to control; settings: OVCAR-3, 48 h, read-out: Activity
CAKI-1 = assay: Growth inhibition of human Caki1 cells assessed as cell growth at 10 uM after 48 hrs by sulforhodamine B assay relative to control; settings: CAKI-1, 48 h, read-out: Activity
Malme-3M = assay: Growth inhibition of human MALME-3M cells assessed as cell growth at 10 uM after 48 hrs by sulforhodamine B assay relative to control; settings: read-out: Activity
SR = assay: Growth inhibition of human SR cells assessed as cell growth at 10 uM after 48 hrs by sulforhodamine B assay relative to control; settings: read-out: Activity
SNB-19 = assay: Growth inhibition of human SNB19 cells assessed as cell growth at 10 uM after 48 hrs by sulforhodamine B assay relative to control; settings: SNB-19, 48 h, read-out: Activity
BT-549 = assay: Growth inhibition of human BT549 cells assessed as cell growth at 10 uM after 48 hrs by sulforhodamine B assay relative to control; settings: BT-549, 48 h, read-out: Activity
HCC 2998 = assay: Growth inhibition of human HCC2998 cells assessed as cell growth at 10 uM after 48 hrs by sulforhodamine B assay relative to control; settings: HCC 2998, 48 h, read-out: Activity
A549 = assay: Growth inhibition of human A549/ATCC cells assessed as cell growth at 10 uM after 48 hrs by sulforhodamine B assay relative to control; settings: A549, 48 h, read-out: Activity
786-0 = assay: Growth inhibition of human 786-0 cells assessed as cell growth at 10 uM after 48 hrs by sulforhodamine B assay relative to control; settings: 786-0, 48 h, read-out: Activity
DU-145 = assay: Growth inhibition of human DU145 cells assessed as cell growth at 10 uM after 48 hrs by sulforhodamine B assay relative to control; settings: DU-145, 48 h, read-out: Activity
HOP-62 = assay: Growth inhibition of human HOP62 cells assessed as cell growth at 10 uM after 48 hrs by sulforhodamine B assay relative to control; settings: HOP-62, 48 h, read-out: Activity
EKVX = assay: Growth inhibition of human EKVX cells assessed as cell growth at 10 uM after 48 hrs by sulforhodamine B assay relative to control; settings: read-out: Activity
TK-10 = assay: Growth inhibition of human TK10 cells assessed as cell growth at 10 uM after 48 hrs by sulforhodamine B assay relative to control; settings: TK-10, 48 h, read-out: Activity
NCI-H226 = assay: Growth inhibition of human NCI-H226 cells assessed as cell growth at 10 uM after 48 hrs by sulforhodamine B assay relative to control; settings: NCI-H226, 48 h, read-out: Activity
OVCAR-8 = assay: Growth inhibition of human OVCAR8 cells assessed as cell growth at 10 uM after 48 hrs by sulforhodamine B assay relative to control; settings: OVCAR-8, 48 h, read-out: Activity
SK-OV-3 = assay: Growth inhibition of human SKOV3 cells assessed as cell growth at 10 uM after 48 hrs by sulforhodamine B assay relative to control; settings: SK-OV-3, 48 h, read-out: Activity
SN12C = assay: Growth inhibition of human SN12C cells assessed as cell growth at 10 uM after 48 hrs by sulforhodamine B assay relative to control; settings: read-out: Activity
MDA-MB-468 = assay: Growth inhibition of human MDA-MB-468 cells assessed as cell growth at 10 uM after 48 hrs by sulforhodamine B assay relative to control; settings: MDA-MB-468, 48 h, read-out: Activity
SK-MEL-2 = assay: Growth inhibition of human SK-MEL-2 cells assessed as cell growth at 10 uM after 48 hrs by sulforhodamine B assay relative to control; settings: SK-MEL-2, 48 h, read-out: Activity
OVCAR-5 = assay: Growth inhibition of human OVCAR5 cells assessed as cell growth at 10 uM after 48 hrs by sulforhodamine B assay relative to control; settings: OVCAR-5, 48 h, read-out: Activity
RXF 393 = assay: Growth inhibition of human RXF393 cells assessed as cell growth at 10 uM after 48 hrs by sulforhodamine B assay relative to control; settings: RXF 393, 48 h, read-out: Activity
UACC-257 = assay: Growth inhibition of human UACC257 cells assessed as cell growth at 10 uM after 48 hrs by sulforhodamine B assay relative to control; settings: UACC-257, 48 h, read-out: Activity
OVCAR-4 = assay: Growth inhibition of human OVCAR4 cells assessed as cell growth at 10 uM after 48 hrs by sulforhodamine B assay relative to control; settings: OVCAR-4, 48 h, read-out: Activity
SF-268 = assay: Growth inhibition of human SF268 cells assessed as cell growth at 10 uM after 48 hrs by sulforhodamine B assay relative to control; settings: SF-268, 48 h, read-out: Activity
ACHN = assay: Growth inhibition of human ACHN cells assessed as cell growth at 10 uM after 48 hrs by sulforhodamine B assay relative to control; settings: read-out: Activity
HL-60(TB) = assay: Growth inhibition of human HL-60(TB) cells assessed as cell growth at 10 uM after 48 hrs by sulforhodamine B assay relative to control; settings: HL-60, 48 h, read-out: Activity
K562 = assay: Growth inhibition of human K562 cells assessed as cell growth at 10 uM after 48 hrs by sulforhodamine B assay relative to control; settings: K562, 48 h, read-out: Activity
SNB-75 = assay: Growth inhibition of human SNB75 cells assessed as cell growth at 10 uM after 48 hrs by sulforhodamine B assay relative to control; settings: SNB-75, 48 h, read-out: Activity
M14 = assay: Growth inhibition of human M14 cells assessed as cell growth at 10 uM after 48 hrs by sulforhodamine B assay relative to control; settings: M14, 48 h, read-out: Activity
HCT-116 = assay: Growth inhibition of human HCT116 cells assessed as cell growth at 10 uM after 48 hrs by sulforhodamine B assay relative to control; settings: HCT-116, 48 h, read-out: Activity
HOP-92 = assay: Growth inhibition of human HOP92 cells assessed as cell growth at 10 uM after 48 hrs by sulforhodamine B assay relative to control; settings: HOP-92, 48 h, read-out: Activity
MOLT-4 = assay: Growth inhibition of human MOLT4 cells assessed as cell growth at 10 uM after 48 hrs by sulforhodamine B assay relative to control; settings: MOLT-4, 48 h, read-out: Activity
SF-295 = assay: Growth inhibition of human SF295 cells assessed as cell growth at 10 uM after 48 hrs by sulforhodamine B assay relative to control; settings: SF-295, 48 h, read-out: Activity

COc1ccc(Cn2cc(C(=O)N/N=C3/C(=O)Nc4ccc(F)c(Cl)c43)nn2)cc1
growth at 10 µM (SK-MEL-28): 115%
growth at 10 µM (OVCAR-3): 105%
growth at 10 µM (CAKI-1): 96.8%
growth at 10 µM (Malme-3M): 103%
growth at 10 µM (SR): 99.5%
growth at 10 µM (SNB-19): 101%
growth at 10 µM (BT-549): 117%
growth at 10 µM (HCC 2998): 104%
growth at 10 µM (A549): 98%
growth at 10 µM (786-0): 103%
growth at 10 µM (DU-145): 96.6%
growth at 10 µM (HOP-62): 112%
growth at 10 µM (EKVX): 108%
growth at 10 µM (TK-10): 101%
growth at 10 µM (NCI-H226): 93.2%
growth at 10 µM (OVCAR-8): 99.2%
growth at 10 µM (SK-OV-3): 116%
growth at 10 µM (SN12C): 103%
growth at 10 µM (MDA-MB-468): 108%
growth at 10 µM (SK-MEL-2): 95.6%
growth at 10 µM (OVCAR-5): 122%
growth at 10 µM (RXF 393): 104%
growth at 10 µM (UACC-257): 100%
growth at 10 µM (OVCAR-4): 104%
growth at 10 µM (SF-268): 99.4%
growth at 10 µM (ACHN): 111%
growth at 10 µM (HL-60(TB)): 78.7%
growth at 10 µM (K562): 90.8%
growth at 10 µM (SNB-75): 103%
growth at 10 µM (M14): 107%
growth at 10 µM (HCT-116): 109%
growth at 10 µM (HOP-92): 129%
growth at 10 µM (MOLT-4): 96.8%

COc1ccc(Cn2cc(C(=O)N/N=C3/C(=O)Nc4c(Cl)cccc43)nn2)cc1
growth at 10 µM (SK-MEL-28): 115%
growth at 10 µM (OVCAR-3): 113%
growth at 10 µM (CAKI-1): 94.4%
growth at 10 µM (Malme-3M): 99.7%
growth at 10 µM (SF-295): 109%
growth at 10 µM (SR): 80.3%
growth at 10 µM (SNB-19): 93.6%
growth at 10 µM (BT-549): 111%
growth at 10 µM (HCC 2998): 99.3%
growth at 10 µM (A549): 102%
growth at 10 µM (786-0): 106%
growth at 10 µM (DU-145): 105%
growth at 10 µM (HOP-62): 110%
growth at 10 µM (EKVX): 102%
growth at 10 µM (TK-10): 106%
growth at 10 µM (NCI-H226): 102%
growth at 10 µM (OVCAR-8): 97.4%
growth at 10 µM (SK-OV-3): 113%
growth at 10 µM (SN12C): 95.8%
growth at 10 µM (MDA-MB-468): 98.6%
growth at 10 µM (SK-MEL-2): 93.2%
growth at 10 µM (OVCAR-5): 123%
growth at 10 µM (RXF 393): 109%
growth at 10 µM (UACC-257): 92.9%
growth at 10 µM (OVCAR-4): 104%
growth at 10 µM (SF-268): 94.7%
growth at 10 µM (ACHN): 111%
growth at 10 µM (HL-60(TB)): 97.3%
growth at 10 µM (K562): 89.2%
growth at 10 µM (SNB-75): 82%
growth at 10 µM (M14): 106%
growth at 10 µM (HCT-116): 91.6%
growth at 10 µM (HOP-92): 105%
growth at 10 µM (MOLT-4): 84.8%

COc1ccc(Cn2cc(C(=O)N/N=C3/C(=O)Nc4ccc(F)cc43)nn2)cc1
growth at 10 µM (SK-MEL-28): 116%
growth at 10 µM (OVCAR-3): 112%
growth at 10 µM (CAKI-1): 97.4%
growth at 10 µM (Malme-3M): 104%
growth at 10 µM (SF-295): 95.4%
growth at 10 µM (SR): 102%
growth at 10 µM (SNB-19): 96.8%
growth at 10 µM (BT-549): 116%
growth at 10 µM (HCC 2998): 99.3%
growth at 10 µM (A549): 94.2%
growth at 10 µM (786-0): 97.6%
growth at 10 µM (DU-145): 103%
growth at 10 µM (HOP-62): 102%
growth at 10 µM (EKVX): 106%
growth at 10 µM (TK-10): 102%
growth at 10 µM (NCI-H226): 98.5%
growth at 10 µM (OVCAR-8): 98.7%
growth at 10 µM (SK-OV-3): 98.9%
growth at 10 µM (SN12C): 94.6%
growth at 10 µM (MDA-MB-468): 87.8%
growth at 10 µM (SK-MEL-2): 109%
growth at 10 µM (OVCAR-5): 94.7%
growth at 10 µM (RXF 393): 110%
growth at 10 µM (UACC-257): 91%
growth at 10 µM (OVCAR-4): 101%
growth at 10 µM (SF-268): 103%
growth at 10 µM (ACHN): 110%
growth at 10 µM (HL-60(TB)): 101%
growth at 10 µM (K562): 97.2%
growth at 10 µM (SNB-75): 104%
growth at 10 µM (M14): 111%
growth at 10 µM (HCT-116): 108%
growth at 10 µM (HOP-92): 98.8%
growth at 10 µM (MOLT-4): 107%
